Source: US20250066363A1, “Bicyclic DGK Inhibitors” (Incyte Corporation, priority 2023, published 2025)

Experiments:
DGKζ = DGKζ (Homo sapiens (Human), UniProt Q13574); assay: In vitro DGKζ inhibition assay (ADP-Glo); assay type: biochemical; details: second column of Table A, head printed DGKα, presumably DGKζ; His-tagged human recombinant DGKζ 0.4 nM, 30 μM ATP, 20 μM DLG
Experimental: (§1) The DGKα and DGKζ biochemical reactions were performed using His-tagged human recombinant enzymes (Signal Chem, DGKα, #D21-10BH; DGKζ, #D30-1OH)) and DLG (Dilauroyl-sn-glycerol) lipid substrate (Signal Chem, #D430-59). ADP-Glo assay was performed using ADP-Glo™ kinase Assay kit (Promega, #V9104). The reactions were carried out in assay buffer containing 40 mM Tris, pH 7.5, 0.1% CHAPS, 0.1% Prionex, 40 mM NaCl, 5 mM MgCl2, 1 mM CaCl2, and 1 mM DTT. DGKα reactions contained 0.1 nM DGKα, 50 μM ATP, and 20 μM DLG. And DGKζ reactions contained 0.4 nM DGKζ, 30 μM ATP, and 20 μM DLG.
(§2) For compound inhibition studies, 40 nL test compound in DMSO was added to wells of white polystyrene plates in 384-well (Greiner, #784075) or 1536-well format (Greiner, #782075). Compounds were added with top concentration of 2 mM with 11 point, 3-fold dilution series. Enzyme solution (contains 2× DGK enzyme concentration in 1× assay buffer) was added to the plate in 2 μL/well volume, followed by 2 μL/well of substrate solution (contains 2× concentration of ATP and DLG substrate in 1× assay buffer). Plates were then centrifuged for 1 min at 1200 RPM and sealed or lidded. For 4 μL reaction volume, test compounds were therefore diluted 100× to final top concentration of 20 μM. After 90 minute incubation, reactions were quenched by addition of 2 μL/well Promega ADP-Glo Reagent, followed by centrifugation and lidding. After 60 min incubation, 2 μL/well Promega Kinase Detection Reagent was added, plates centrifuged, and incubated for 30 min. Plates were then read using Luminescence method on BMG PHERAstar FSX plate reader. Percent inhibition was calculated and IC50s were determined using 4-parameter fit in Genedata Screener. Labcyte Echo acoustic dispenser was used for compound addition, and Formulatrix Tempest liquid handler was used for all reagent dispenses.

DGKα = DGKα (Homo sapiens (Human), UniProt P23743); assay: In vitro DGKα inhibition assay (ADP-Glo); assay type: biochemical; details: first column of Table A; His-tagged human recombinant DGKα 0.1 nM, 50 μM ATP, 20 μM DLG
Experimental: as §1, §2

DGKα, sequence (P23743 whole entry): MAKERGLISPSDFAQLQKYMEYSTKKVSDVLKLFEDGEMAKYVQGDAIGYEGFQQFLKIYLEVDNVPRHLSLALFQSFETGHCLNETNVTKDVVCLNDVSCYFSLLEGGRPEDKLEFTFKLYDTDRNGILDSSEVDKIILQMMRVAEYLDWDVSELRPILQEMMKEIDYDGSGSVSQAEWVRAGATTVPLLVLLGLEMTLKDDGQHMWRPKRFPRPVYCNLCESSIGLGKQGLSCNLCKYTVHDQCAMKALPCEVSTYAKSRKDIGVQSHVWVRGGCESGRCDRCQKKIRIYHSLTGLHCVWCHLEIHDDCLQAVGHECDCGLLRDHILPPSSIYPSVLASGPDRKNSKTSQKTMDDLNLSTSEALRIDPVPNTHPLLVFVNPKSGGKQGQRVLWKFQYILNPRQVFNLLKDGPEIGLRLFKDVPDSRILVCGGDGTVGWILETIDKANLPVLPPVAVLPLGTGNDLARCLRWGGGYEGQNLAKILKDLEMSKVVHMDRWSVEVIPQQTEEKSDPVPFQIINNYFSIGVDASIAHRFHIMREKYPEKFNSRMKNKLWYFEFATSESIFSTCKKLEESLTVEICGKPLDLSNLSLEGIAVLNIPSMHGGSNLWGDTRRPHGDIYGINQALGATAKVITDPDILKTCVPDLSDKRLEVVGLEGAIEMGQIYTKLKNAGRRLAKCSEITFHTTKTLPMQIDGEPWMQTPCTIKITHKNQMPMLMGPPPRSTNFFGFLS
DGKζ, sequence (Q13574 whole entry): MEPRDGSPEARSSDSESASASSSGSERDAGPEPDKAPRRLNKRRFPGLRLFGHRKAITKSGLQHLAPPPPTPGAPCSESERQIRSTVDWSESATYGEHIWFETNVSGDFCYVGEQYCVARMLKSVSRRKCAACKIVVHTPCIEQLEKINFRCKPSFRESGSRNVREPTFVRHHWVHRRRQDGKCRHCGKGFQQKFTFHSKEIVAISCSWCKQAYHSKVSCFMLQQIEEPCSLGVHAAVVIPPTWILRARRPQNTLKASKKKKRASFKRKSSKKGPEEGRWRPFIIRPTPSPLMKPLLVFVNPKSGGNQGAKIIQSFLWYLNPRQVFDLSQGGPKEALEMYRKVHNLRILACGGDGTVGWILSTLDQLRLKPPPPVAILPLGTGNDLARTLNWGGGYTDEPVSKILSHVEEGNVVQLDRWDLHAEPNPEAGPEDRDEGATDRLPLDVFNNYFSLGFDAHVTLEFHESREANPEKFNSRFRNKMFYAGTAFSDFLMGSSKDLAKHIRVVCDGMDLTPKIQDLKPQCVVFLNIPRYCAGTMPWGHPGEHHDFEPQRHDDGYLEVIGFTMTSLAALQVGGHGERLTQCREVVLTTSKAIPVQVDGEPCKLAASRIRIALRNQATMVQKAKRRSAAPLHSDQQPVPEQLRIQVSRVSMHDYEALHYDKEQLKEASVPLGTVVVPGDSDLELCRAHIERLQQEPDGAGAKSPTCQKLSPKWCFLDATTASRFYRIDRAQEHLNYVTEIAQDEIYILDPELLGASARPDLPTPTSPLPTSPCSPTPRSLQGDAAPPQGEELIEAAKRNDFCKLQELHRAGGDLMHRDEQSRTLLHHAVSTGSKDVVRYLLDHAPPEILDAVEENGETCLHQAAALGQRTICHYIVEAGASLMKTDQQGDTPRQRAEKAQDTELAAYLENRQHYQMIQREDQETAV

IC50 (DGKζ)	IC50 (DGKα)	Structure (SMILES)
≤ 10 nM	≤ 10 nM	Cc1nc2c(N3C[C@@H](C)N([C@H](c4ccc(C(F)(F)F)cc4F)C(C)C)C[C@@H]3C)nc(=O)n(C)c2n1C[C@@H]1CCCO1 [Example 51, 6-((2S,5R)-4-((S)-1-(2-Fluoro-4-(trifluoromethyl)phenyl)-2-methylpropyl)-2,5-dimethylpiperazin-1-yl)-3,8-dimethyl-9-(((S)-tetrahydrofuran-2-yl)methyl)-3,9-dihydro-2H-purin-2-one]
≤ 10 nM	≤ 10 nM	CC[C@@H]1CN(c2nc(=O)n(C)c3c2nc(C)n3C[C@H]2OCC[C@@H]2O)[C@@H](C)CN1[C@H](CC)c1ccc(C(F)(F)F)cc1 [Example 70, 6-((2S,5R)-5-ethyl-2-methyl-4-((R)-1-(4-(trifluoromethyl)phenyl)propyl)piperazin-1-yl)-9-(((2R,3S)-3-hydroxytetrahydrofuran-2-yl)methyl)-3,8-dimethyl-3,9-dihydro-2H-purin-2-one]
≤ 10 nM	≤ 10 nM	CCC(c1ccc(C(F)(F)F)cc1)N1C[C@H](C)N(c2nc(=O)n(C)c3c2ncn3CC2(O)CCCC2)C[C@H]1CC (single isomer, unassigned) [Example 73]
≤ 10 nM	≤ 10 nM	CC[C@@H]1CN(c2nc(=O)n(C)c3c2nc(C)n3C[C@@H]2CCCO2)[C@@H](C)CN1C(c1ccc(C(F)(F)F)c(F)c1)C(C)C (single isomer, unassigned) [Example 46]
≤ 10 nM	≤ 10 nM	Cc1nc2c(N3C[C@@H](C)N([C@@H](c4ccc(C(F)(F)F)cc4F)C(C)C)C[C@@H]3C)nc(=O)n(C)c2n1C[C@@H]1CCCO1 [Example 52, 6-((2S,5R)-4-((R)-1-(2-Fluoro-4-(trifluoromethyl)phenyl)-2-methylpropyl)-2,5-dimethylpiperazin-1-yl)-3,8-dimethyl-9-(((S)-tetrahydrofuran-2-yl)methyl)-3,9-dihydro-2H-purin-2-one]
≤ 100 nM	≤ 10 nM	CC[C@@H]1CN(c2nc(=O)[nH]c3c2nc(C)n3C[C@@H]2CCCO2)[C@@H](C)CN1C(c1ccc(Cl)cc1)C1CC(F)(F)C1 (stereo partly drawn) [Example 36, 6-((2S,5R)-4-((4-Chlorophenyl)(3,3-difluorocyclobutyl)methyl)-5-ethyl-2-methylpiperazin-1-yl)-8-methyl-9-(((S)-tetrahydrofuran-2-yl)methyl)-3,9-dihydro-2H-purin-2-one]
≤ 10 nM	≤ 10 nM	C[C@@H]1CN(c2nc(=O)n(C)c3c2nnn3C[C@H]2CCCO2)[C@@H](C)CN1C(c1ccc(C(F)(F)F)cc1)C1CC(F)(F)C1 (stereo partly drawn) [Example 43, 7-((2S,5R)-4-((3,3-Difluorocyclobutyl)(4-(trifluoromethyl)phenyl)methyl)-2,5-dimethylpiperazin-1-yl)-4-methyl-3-(((R)-tetrahydrofuran-2-yl)methyl)-3,4-dihydro-5H-[1,2,3]triazolo[4,5-d]pyrimidin-5-one]
≤ 10 nM	≤ 10 nM	CC(C)[C@@H](c1ccc(Cl)cc1)N1C[C@H](C)N(c2nc(=O)n(C)c3c2ncn3CC2(O)CCCC2)C[C@H]1C [Example 57, 6-((2S,5R)-4-((S)-1-(4-Chlorophenyl)-2-methylpropyl)-2,5-dimethylpiperazin-1-yl)-9-((1-hydroxycyclopentyl)methyl)-3-methyl-3,9-dihydro-2H-purin-2-on]
≤ 100 nM	≤ 100 nM	Cc1nc2c(N3C[C@@H](C)N(C(c4ccc(C(F)(F)F)cc4)C4CC(F)(F)C4)C[C@@H]3C)cc(=O)n(C)c2n1C[C@@H]1CCCO1 (stereo partly drawn) [Example 40, 7-((2S,5R)-4-((3,3-Difluorocyclobutyl)(4-(trifluoromethyl)phenyl)methyl)-2,5-dimethylpiperazin-1-yl)-2,4-dimethyl-3-(((S)-tetrahydrofuran-2-yl)methyl)-3,4-dihydro-5H-imidazo[4,5-b]pyridin-5-one]
≤ 10 nM	≤ 10 nM	C[C@@H]1CN(c2nc(=O)n(C)c3c2ncn3CC2(O)CCC2)[C@@H](C)CN1C(c1ccc(Cl)cc1)C1CC(F)(F)C1 (stereo partly drawn) [Example 67, 6-((2S,5R)-4-((4-Chlorophenyl)(3,3-difluorocyclobutyl)methyl)-2,5-dimethylpiperazin-1-yl)-9-((1-hydroxycyclobutyl)methyl)-3-methyl-3,9-dihydro-2H-purin-2-one]

Further lines, the molecule ahead of its results:

Structure (SMILES)	IC50 (DGKζ)	IC50 (DGKα)
C[C@@H]1CN(c2nc(=O)n(C)c3c2nnn3C[C@H]2CCCO2)[C@@H](C)CN1C(c1ccc(F)cc1)c1ccc(F)cc1 [Example 13, 7-((2S,5R)-4-(Bis(4-fluorophenyl)methyl)-2,5-dimethylpiperazin-1-yl)-4-methyl-3-(((R)-tetrahydrofuran-2-yl)methyl)-3,4-dihydro-5H-[1,2,3]triazolo[4,5-d]pyrimidin-5-one]	≤ 10 nM	≤ 10 nM
CC[C@@H]1CN(c2nc(=O)n(C)c3c2nc(C)n3C[C@@H]2CCCO2)[C@@H](C)CN1[C@@H](CC)c1ccc(C(F)(F)F)cc1 [Example 28, 6-((2S,5R)-5-Ethyl-2-methyl-4-((S)-1-(4-(trifluoromethyl)phenyl)propyl)piperazin-1-yl)-3,8-dimethyl-9-(((S)-tetrahydrofuran-2-yl)methyl)-3,9-dihydro-2H-purin-2-one]	≤ 10 nM	≤ 10 nM
Cc1nc2c(N3C[C@@H](C)N(C(c4ccc(C(F)(F)F)cc4)C4CC(F)(F)C4)C[C@@H]3C)nc(=O)[nH]c2n1C[C@@H]1CCCO1 (single isomer, unassigned) [Example 14]	≤ 100 nM	≤ 10 nM
CC[C@@H]1CN(c2nc(=O)n(C)c3c2nc(C)n3C[C@@H]2CCCO2)[C@@H](C)CN1[C@@H](CC)c1ccc(Cl)cc1 [Example 24, 6-((2S,5R)-4-((S)-1-(4-Chlorophenyl)propyl)-5-ethyl-2-methylpiperazin-1-yl)-3,8-dimethyl-9-(((S)-tetrahydrofuran-2-yl)methyl)-3,9-dihydro-2H-purin-2-one]	≤ 10 nM	≤ 10 nM
CC[C@@H]1CN(c2nc(=O)n(C)c3c2nnn3C[C@H]2CCCO2)[C@@H](C)CN1[C@@H](CC)c1ccc(Cl)cc1 [Example 26, 7-((2S,5R)-4-((S)-1-(4-Chlorophenyl)propyl)-5-ethyl-2-methylpiperazin-1-yl)-4-methyl-3-(((R)-tetrahydrofuran-2-yl)methyl)-3,4-dihydro-5H-[1,2,3]triazolo[4,5-d]pyrimidin-5-one]	≤ 10 nM	≤ 10 nM
CC[C@@H]1CN(c2nc(=O)n(C)c3c2nc(C)n3C[C@@H]2CCCO2)[C@@H](C)CN1C(c1ccc(F)cc1)c1ccc(F)cc1 [Example 5, 6-((2S,5R)-4-(Bis(4-fluorophenyl)methyl)-5-ethyl-2-methylpiperazin-1-yl)-3,8-dimethyl-9-(((S)-tetrahydrofuran-2-yl)methyl)-3,9-dihydro-2H-purin-2-one]	≤ 10 nM	≤ 10 nM
CC(C)CC(c1ccc(Cl)cc1)N1C[C@H](C)N(c2nc(=O)n(C)c3c2nnn3C[C@@H]2CCCO2)C[C@H]1C (single isomer, unassigned) [Example 17]	≤ 10 nM	≤ 10 nM
C[C@@H]1CN(c2nc(=O)n(C)c3c2nnn3C[C@@H]2CCCO2)[C@@H](C)CN1C(c1ccc(F)cc1)c1ccc(F)cc1 [Example 12, 7-((2S,5R)-4-(Bis(4-fluorophenyl)methyl)-2,5-dimethylpiperazin-1-yl)-4-methyl-3-(((S)-tetrahydrofuran-2-yl)methyl)-3,4-dihydro-5H-[1,2,3]triazolo[4,5-d]pyrimidin-5-one]	≤ 10 nM	≤ 10 nM
C[C@@H]1CN(c2nc(=O)n(C)c3c2cnn3C)[C@@H](C)CN1C(c1ccc(F)cc1)c1ccc(F)cc1 [Example 7, 4-((2S,5R)-4-(Bis(4-fluorophenyl)methyl)-2,5-dimethylpiperazin-1-yl)-1,7-dimethyl-1,7-dihydro-6H-pyrazolo[3,4-d]pyrimidin-6-one]	> 1000 nM	≤ 10 nM
C[C@@H]1CN(c2nc(=O)[nH]c3c2ncn3C[C@@H]2CCCO2)[C@@H](C)CN1C(c1ccc(F)cc1)c1ccc(F)cc1 [Example 9, 6-((2S,5R)-4-(Bis(4-fluorophenyl)methyl)-2,5-dimethylpiperazin-1-yl)-9-(((S)-tetrahydrofuran-2-yl)methyl)-3,9-dihydro-2H-purin-2-one]	≤ 100 nM	≤ 100 nM
C[C@@H]1CN(c2nc(=O)n(C)c3c2nnn3C[C@@H]2CCCO2)[C@@H](C)CN1C(c1ccc(C(F)(F)F)cn1)c1ccc(C(F)(F)F)cn1 [Example 32, 7-((2S,5R)-4-(Bis(5-(trifluoromethyl)pyridin-2-yl)methyl)-2,5-dimethylpiperazin-1-yl)-4-methyl-3-(((S)-tetrahydrofuran-2-yl)methyl)-3,4-dihydro-5H-[1,2,3]triazolo[4,5-d]pyrimidin-5-one]	≤ 10 nM	≤ 10 nM
